In PubChem BioAssay AID1845210 (Molecular Pharmacology Branch, DTP, NCI, 2023):

Test system: NCI-H226 complex tumor spheroids, viability
Experiment: Anticancer human tumor NCI-H226 cell line growth inhibition;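 further: spheroids exposed to compound for 7 days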;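 on viability, T/C: 100% = DMSO vehicle control viability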
Settings: for IC50: curve of first compound; for viability, T/C: stronger effect = lower value
Outline: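 Single agents and combinations were tested on spheroids built from tumor cells plus HUVEC and hMSC, at half-log dilutions starting at or near clinical Cmax, else 10 microM; final DMSO 0.25% (v/v).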

[1] = second compound 1 µM, first compound 0.0316 µM
[2] = second compound 1 µM, first compound 0.1 µM
[3] = second compound 1 µM, first compound 0.316 µM
[4] = second compound 1 µM, first compound 1 µM
[5] = second compound 1 µM, first compound 3.16 µM
[6] = second compound 1 µM, first compound 10 µM
[7] = second compound 3.16 µM, first compound 0.0316 µM
[8] = second compound 3.16 µM, first compound 0.1 µM
[9] = second compound 3.16 µM, first compound 0.316 µM
[10] = second compound 3.16 µM, first compound 1 µM
[11] = second compound 3.16 µM, first compound 3.16 µM
[12] = second compound 3.16 µM, first compound 10 µM
[13] = second compound 10 µM, first compound 0.0316 µM
[14] = second compound 10 µM, first compound 0.1 µM
[15] = second compound 10 µM, first compound 0.316 µM
[16] = second compound 10 µM, first compound 1 µM
[17] = second compound 10 µM, first compound 3.16 µM
[18] = second compound 10 µM, first compound 10 µM
[19] = second compound 31.6 µM, first compound 0.0316 µM
[20] = second compound 31.6 µM, first compound 0.1 µM
[21] = second compound 31.6 µM, first compound 0.316 µM
[22] = second compound 31.6 µM, first compound 1 µM
[23] = second compound 31.6 µM, first compound 3.16 µM
[24] = second compound 31.6 µM, first compound 10 µM
[25] = second compound 100 µM, first compound 0.0316 µM
[26] = second compound 100 µM, first compound 0.1 µM
[27] = second compound 100 µM, first compound 0.316 µM
[28] = second compound 100 µM, first compound 1 µM
[29] = second compound 100 µM, first compound 3.16 µM
[30] = second compound 100 µM, first compound 10 µM

SMILES: CC1COCCN1c1cc(-c2ccnn2C)c2ccnc(-c3ccn[nH]3)c2n1 (stereo not given) + Cn1nnc2c(C(N)=O)ncn2c1=O
- IC50 (second compound 1 µM): 1.89 µM
- IC50 (second compound 3.16 µM): 1.75 µM
- IC50 (second compound 10 µM): 2.01 µM
- IC50 (second compound 31.6 µM): 2.02 µM
- IC50 (second compound 100 µM): 2.41 µM
- viability, T/C [1]: 88.1%
- viability, T/C [2]: 86.8%
- viability, T/C [3]: 79.3%
- viability, T/C [4]: 59.6%
- viability, T/C [5]: 42.4%
- viability, T/C [6]: 35.9%
- viability, T/C [7]: 98.8%
- viability, T/C [8]: 86.1%
- viability, T/C [9]: 78.4%
- viability, T/C [10]: 50.8%
- viability, T/C [11]: 47.8%
- viability, T/C [12]: 34.9%
- viability, T/C [13]: 105%
- viability, T/C [14]: 88.6%
- viability, T/C [15]: 73%
- viability, T/C [16]: 59.3%
- viability, T/C [17]: 43.1%
- viability, T/C [18]: 36.1%
- viability, T/C [19]: 90.2%
- viability, T/C [20]: 91.5%
- viability, T/C [21]: 74.7%
- viability, T/C [22]: 58.3%
- viability, T/C [23]: 46.1%
- viability, T/C [24]: 37.9%
- viability, T/C [25]: 116%
- viability, T/C [26]: 107%
- viability, T/C [27]: 92.9%
- viability, T/C [28]: 61.5%
- viability, T/C [29]: 46.2%
- viability, T/C [30]: 42.5%

SMILES: COc1cc(C)[nH]c(=O)c1CN1CCc2c(Cl)cc(C(OC)C3COC3)c(Cl)c2C1=O (stereo not given) + Cn1nnc2c(C(N)=O)ncn2c1=O
- IC50 (second compound 1 µM): > 10 µM
- IC50 (second compound 3.16 µM): > 10 µM
- IC50 (second compound 10 µM): > 10 µM
- IC50 (second compound 31.6 µM): > 10 µM
- IC50 (second compound 100 µM): > 10 µM
- viability, T/C [1]: 133%
- viability, T/C [2]: 131%
- viability, T/C [3]: 130%
- viability, T/C [4]: 133%
- viability, T/C [5]: 129%
- viability, T/C [6]: 132%
- viability, T/C [7]: 117%
- viability, T/C [8]: 138%
- viability, T/C [9]: 124%
- viability, T/C [10]: 121%
- viability, T/C [11]: 136%
- viability, T/C [12]: 108%
- viability, T/C [13]: 132%
- viability, T/C [14]: 128%
- viability, T/C [15]: 125%
- viability, T/C [16]: 136%
- viability, T/C [17]: 128%
- viability, T/C [18]: 127%
- viability, T/C [19]: 124%
- viability, T/C [20]: 144%
- viability, T/C [21]: 132%
- viability, T/C [22]: 125%
- viability, T/C [23]: 135%
- viability, T/C [24]: 145%
- viability, T/C [25]: 118%
- viability, T/C [26]: 132%
- viability, T/C [27]: 136%
- viability, T/C [28]: 146%
- viability, T/C [29]: 137%
- viability, T/C [30]: 150%

SMILES: COc1ccc([C@@H](O)c2cc(-c3ncnc4cc(N5CCOCC5)ccc34)c(F)cc2Cl)nn1 + Cn1nnc2c(C(N)=O)ncn2c1=O
- IC50 (second compound 1 µM): 4.71 µM
- IC50 (second compound 3.16 µM): 2.97 µM
- IC50 (second compound 10 µM): 3.43 µM
- IC50 (second compound 31.6 µM): 3.69 µM
- IC50 (second compound 100 µM): 4.53 µM
- viability, T/C [1]: 94.3%
- viability, T/C [2]: 100%
- viability, T/C [3]: 89%
- viability, T/C [4]: 66.8%
- viability, T/C [5]: 60.8%
- viability, T/C [6]: 37.5%
- viability, T/C [7]: 95.2%
- viability, T/C [8]: 101%
- viability, T/C [9]: 92.2%
- viability, T/C [10]: 67.9%
- viability, T/C [11]: 52.1%
- viability, T/C [12]: 38.1%
- viability, T/C [13]: 86.9%
- viability, T/C [14]: 89.4%
- viability, T/C [15]: 90.4%
- viability, T/C [16]: 73.8%
- viability, T/C [17]: 52.1%
- viability, T/C [18]: 34.4%
- viability, T/C [19]: 98.5%
- viability, T/C [20]: 91.8%
- viability, T/C [21]: 91%
- viability, T/C [22]: 67.5%
- viability, T/C [23]: 54.2%
- viability, T/C [24]: 36.7%
- viability, T/C [25]: 111%
- viability, T/C [26]: 107%
- viability, T/C [27]: 95.8%
- viability, T/C [28]: 75.9%
- viability, T/C [29]: 56.1%
- viability, T/C [30]: 38.1%

SMILES: Cc1cc(C)c(CNC(=O)c2cc(-c3ccc(CN4CCOCC4)cc3)cc3c2cnn3C2CCCC2)c(=O)[nH]1 + Cn1nnc2c(C(N)=O)ncn2c1=O
- IC50 (second compound 1 µM): > 10 µM
- IC50 (second compound 3.16 µM): > 10 µM
- IC50 (second compound 10 µM): > 10 µM
- IC50 (second compound 31.6 µM): > 10 µM
- IC50 (second compound 100 µM): > 10 µM
- viability, T/C [1]: 113%
- viability, T/C [2]: 125%
- viability, T/C [3]: 106%
- viability, T/C [4]: 115%
- viability, T/C [5]: 131%
- viability, T/C [6]: 102%
- viability, T/C [7]: 125%
- viability, T/C [8]: 135%
- viability, T/C [9]: 113%
- viability, T/C [10]: 113%
- viability, T/C [11]: 97.4%
- viability, T/C [12]: 119%
- viability, T/C [13]: 128%
- viability, T/C [14]: 136%
- viability, T/C [15]: 122%
- viability, T/C [16]: 109%
- viability, T/C [17]: 111%
- viability, T/C [18]: 125%
- viability, T/C [19]: 123%
- viability, T/C [20]: 108%
- viability, T/C [21]: 116%
- viability, T/C [22]: 109%
- viability, T/C [23]: 103%
- viability, T/C [24]: 144%
- viability, T/C [25]: 108%
- viability, T/C [26]: 114%
- viability, T/C [27]: 122%
- viability, T/C [28]: 130%
- viability, T/C [29]: 110%
- viability, T/C [30]: 132%

SMILES: Cc1sc2c(c1C)C(c1ccc(Cl)cc1)=NC(CC(=O)Nc1ccc(O)cc1)c1nnc(C)n1-2 (stereo not given) + Cn1nnc2c(C(N)=O)ncn2c1=O
- IC50 (second compound 1 µM): 0.959 µM
- IC50 (second compound 3.16 µM): 0.808 µM
- IC50 (second compound 10 µM): 1 µM
- IC50 (second compound 31.6 µM): 1.27 µM
- IC50 (second compound 100 µM): 1.57 µM
- viability, T/C (second compound 1 µM, first compound 0.00949 µM): 83.4%
- viability, T/C (second compound 1 µM, first compound 0.03 µM): 85%
- viability, T/C (second compound 1 µM, first compound 0.0949 µM): 74.9%
- viability, T/C (second compound 1 µM, first compound 0.3 µM): 68.4%
- viability, T/C (second compound 1 µM, first compound 0.949 µM): 48.8%
- viability, T/C (second compound 1 µM, first compound 3 µM): 40.3%
- viability, T/C (second compound 3.16 µM, first compound 0.00949 µM): 79.2%
- viability, T/C (second compound 3.16 µM, first compound 0.03 µM): 78.7%
- viability, T/C (second compound 3.16 µM, first compound 0.0949 µM): 81.1%
- viability, T/C (second compound 3.16 µM, first compound 0.3 µM): 63.2%
- viability, T/C (second compound 3.16 µM, first compound 0.949 µM): 49.4%
- viability, T/C (second compound 3.16 µM, first compound 3 µM): 39.6%
- viability, T/C (second compound 10 µM, first compound 0.00949 µM): 90.6%
- viability, T/C (second compound 10 µM, first compound 0.03 µM): 78.3%
- viability, T/C (second compound 10 µM, first compound 0.0949 µM): 76.8%
- viability, T/C (second compound 10 µM, first compound 0.3 µM): 66.4%
- viability, T/C (second compound 10 µM, first compound 0.949 µM): 46.8%
- viability, T/C (second compound 10 µM, first compound 3 µM): 42.5%
- viability, T/C (second compound 31.6 µM, first compound 0.00949 µM): 87.1%
- viability, T/C (second compound 31.6 µM, first compound 0.03 µM): 80.2%
- viability, T/C (second compound 31.6 µM, first compound 0.0949 µM): 70.2%
- viability, T/C (second compound 31.6 µM, first compound 0.3 µM): 71%
- viability, T/C (second compound 31.6 µM, first compound 0.949 µM): 52%
- viability, T/C (second compound 31.6 µM, first compound 3 µM): 38.5%
- viability, T/C (second compound 100 µM, first compound 0.00949 µM): 92.7%
- viability, T/C (second compound 100 µM, first compound 0.03 µM): 80.2%
- viability, T/C (second compound 100 µM, first compound 0.0949 µM): 84.8%
- viability, T/C (second compound 100 µM, first compound 0.3 µM): 67.8%
- viability, T/C (second compound 100 µM, first compound 0.949 µM): 55.4%
- viability, T/C (second compound 100 µM, first compound 3 µM): 42.5%

SMILES: [2H]c1nc(C)nc([2H])c1-c1cc(NC[C@@H](C)c2cccc3c(C(=O)NC)ccnc23)ncn1 + Cn1nnc2c(C(N)=O)ncn2c1=O
- IC50 (second compound 1 µM): > 10 µM
- IC50 (second compound 3.16 µM): > 10 µM
- IC50 (second compound 10 µM): > 10 µM
- IC50 (second compound 31.6 µM): > 10 µM
- IC50 (second compound 100 µM): > 10 µM
- viability, T/C [1]: 115%
- viability, T/C [2]: 107%
- viability, T/C [3]: 118%
- viability, T/C [4]: 112%
- viability, T/C [5]: 114%
- viability, T/C [6]: 121%
- viability, T/C [7]: 114%
- viability, T/C [8]: 114%
- viability, T/C [9]: 113%
- viability, T/C [10]: 101%
- viability, T/C [11]: 123%
- viability, T/C [12]: 122%
- viability, T/C [13]: 112%
- viability, T/C [14]: 122%
- viability, T/C [15]: 115%
- viability, T/C [16]: 110%
- viability, T/C [17]: 113%
- viability, T/C [18]: 115%
- viability, T/C [19]: 103%
- viability, T/C [20]: 102%
- viability, T/C [21]: 119%
- viability, T/C [22]: 120%
- viability, T/C [23]: 123%
- viability, T/C [24]: 116%
- viability, T/C [25]: 141%
- viability, T/C [26]: 129%
- viability, T/C [27]: 112%
- viability, T/C [28]: 116%
- viability, T/C [29]: 117%
- viability, T/C [30]: 121%
